Test results: PubChem BioAssay (NCI)
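96-well plates; 48 h exposure; 5 concentrations. Endpoints by linear interpolation between flanking doses. Not reached: highest tested concentration assigned. TGI is the concentration that stops growth completely.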

Assays:
Experiment in all cases: NCI tumour cell line growth inhibition, 48 h
SF-539 CNS = tested on: SF-539 CNS
HOP-92 NSCLC = tested on: HOP-92 NSCLC
SK-MEL-2 melanoma = tested on: SK-MEL-2 melanoma
HS 578T breast = tested on: HS 578T breast
MALME-3M melanoma = tested on: MALME-3M melanoma
A498 renal = tested on: A498 renal
MDA-MB-435 = tested on: MDA-MB-435
LOX IMVI melanoma = tested on: LOX IMVI melanoma
OVCAR-8 ovarian = tested on: OVCAR-8 ovarian
MCF7 breast = tested on: MCF7 breast
A549 NSCLC = tested on: A549 NSCLC
SF-268 CNS = tested on: SF-268 CNS
IGROV1 ovarian = tested on: IGROV1 ovarian
T-47D breast = tested on: T-47D breast

SMILES | TGI (SF-539 CNS) [µM] | TGI (HOP-92 NSCLC) [µM] | TGI (SK-MEL-2 melanoma) [µM] | TGI (HS 578T breast) [µM] | TGI (MALME-3M melanoma) [µM] | TGI (A498 renal) [µM] | TGI (MDA-MB-435) [µM] | TGI (LOX IMVI melanoma) [µM] | TGI (OVCAR-8 ovarian) [µM] | TGI (MCF7 breast) [µM] | TGI (A549 NSCLC) [µM] | TGI (SF-268 CNS) [µM] | TGI (IGROV1 ovarian) [µM] | TGI (T-47D breast) [µM]
Oc1c(-c2ccccc2)sc2ccccc12 | > 100 | 57.7 | 41 | > 100 | 59.6 | 88.4 | > 100 | 32.3 | > 100 | 65.8 | 81.4 | > 100 | > 100 | 54.4
COc1cc(C(N)=O)cc(NC(=O)/C=C/c2ccccc2)c1OC | > 100 | > 100 | > 100 | > 100 | > 100 | > 100 | > 100 | > 100 | > 100 | > 100 | > 100 | > 100 | > 100 | > 100
[N-]=[N+]=Nc1c([N+](=O)[O-])c(Cl)nc2ccccc12 | 9.74 | 3.66 | 5.07 | 8.64 | 3.41 | 26.8 | 6.64 | 3.07 | 3.98 | 4.25 | 35.2 | 11.7 | 4.04 | 4.82
CN(C)CCNC(=O)c1cccc2nc3cccc(F)c3nc12 | 7.7 | 3.63 | 4.86 | 9.27 | 6.35 | 5.14 | 2.92 | 2.24 | 3.68 | 6.56 | 2.85 | 19.4 | 9.67 | > 28.4
CCOC(=O)c1cc2c([nH]1)C(=O)CC1=C2CCN1Cc1ccccc1 | 39.4 | 28.3 | 42.5 | 57.4 | 13.2 | 29 | 27.6 | 29.1 | 46.6 | 32.3 | 73.5 | 43.6 | 36 | 6.77
c1ccc2sc(C3(N4CCCCC4)CCCCCC3)cc2c1 | 38.2 | 51.8 | 68.4 | 42 | 53.9 | 33.7 | 55.2 | 34.6 | 72.5 | 31.9 | 80.9 | 46.7 | 52.7 | 31.6
Cc1ccc2[nH]c3[nH]c(=O)[nH]c(=O)c3c2c1 | > 100 | > 100 | > 100 | > 100 | > 100 | > 100 | > 100 | > 100 | > 100 | > 100 | > 100 | > 100 | > 100 | > 100
CCOC(=O)c1cc(C2CCN(Cc3ccccc3)C2=O)c(C(=O)C(=[N+]=[N-])C(C)=O)[nH]1 (configuration not stated) | > 100 | > 100 | > 100 | > 100 | > 100 | > 100 | > 100 | > 100 | > 100 | > 100 | > 100 | > 100 | > 100 | > 100
